“Also recorded” adds a separate entry of the source.
Assays:
[1] = tested on: healthy subjects; assay: 12-lead ECG by time-point and categorical outlier analysis in the TQT study; format: in vivo, human
[2] = tested on: healthy subjects; assay: Safety and tolerability; format: in vivo, human; conditions: for overall percentage of TEAEs: part B
[3] = tested on: healthy subjects; assay: Concentration-QTc; format: in vivo, human; conditions: for Predicted (90% CI) ΔΔQTcF at geometric mean peak concentration: PK/QTc population
[4] = tested on: hERG channels; assay: In vitro hERG ion channel assay; format: cell-based, human; conditions: 160 mg twice daily
[5] = cited from earlier work
[6] = Plasma pharmacokinetics in the TQT study; conditions: for Cmax: Geometric mean Cmax (90% CI), PK/QTc population
[7] = tested on: QTc interval; conditions: therapeutic and supratherapeutic concentrations; cited from earlier work

COc1c(N2C[C@@H]3CCCN[C@@H]3C2)c(F)cc2c(=O)c(C(=O)O)cn(C3CC3)c12 [Moxifloxacin, moxifloxacin, reference compound]
peak effect, mean ΔΔQTcF ([1]; moxifloxacin 400 mg, at 2.5 hours postdose): 12.9 ms | mean ΔΔQTcF ([1]; moxifloxacin 400 mg, between 1 and 4 hours postdose): above 10 msec | overall percentage of TEAEs ([2]; moxifloxacin 400 mg): 22.2% | estimated population slope of the C-QTc relationship ([3]; moxifloxacin): 0.005 msec per ng/mL | intercept of the C-QTc relationship ([3]; moxifloxacin): 3.1 ms

C=CC(=O)N1CCC([C@@H]2CCNc3c(C(N)=O)c(-c4ccc(Oc5ccccc5)cc4)nn32)CC1 [Zanubrutinib]
Mean placebo-corrected change from baseline heart rate (ΔΔHR), magnitude (±) ([1]; all postdose time points, 160 and 480 mg): < 5 bpm | Mean ΔΔPR ([1]; all time points after dosing with zanubrutinib): < 5 ms | upper bound of the 90% CI of ΔΔQTcF ([1]; any postdose time point, both zanubrutinib doses): ≤ 1.2 ms | participants with HR outlier values ([1]; categorical outlier analysis): no participant with HR outlier values | participants with outlier QTcF values (> 450 msec) ([1]; categorical outlier analysis, zanubrutinib 160 and 480 mg): No participants had outlier QTcF values; also recorded: no participant had outlier values | participants with outlier ΔQTcF values (> 30 msec) ([1]; categorical outlier analysis, zanubrutinib groups): No participant had outlier ΔQTcF values | effect on QTc interval ([1]; single 160-mg or 480-mg dose): did not prolong the QTc interval | SAEs or grade 3 or higher AEs related to administration ([2]; part A, 480 mg single dose, n = 6): no SAEs or grade 3 or higher AEs | overall percentage of TEAEs ([2]; zanubrutinib 160 mg): 10.0% | overall percentage of TEAEs ([2]; zanubrutinib 480 mg): 13.3% | exposure margin, hERG IC50 over clinical steady-state unbound Cmax [4]: ~ 217 fold | mean Cmax ([5]; 160 mg, patients with B-cell malignancy): 0.346 µg/mL | mean terminal elimination half-life (t ½) ([5]; oral administration): 2 to 4 h | clinical steady-state unbound Cmax ([5]; recommended phase III dose of 160 mg twice daily, no reference given): 0.042 µM | highest observed plasma concentration in the TQT study ([6]; concentration range included in C-QTc modeling): ≈ 800 ng/mL | Cmax ([6]; human, in vivo, 160 mg, n = 27): 0.215 µg/mL | Cmax ([6]; human, in vivo, 480 mg, n = 28): 0.401 µg/mL | half-life ([6]; human, in vivo, 480 mg, mean t ½, 480-mg dose, range over part A and part B): 8.1 to 11 h | Tmax ([6]; human, in vivo, 480 mg, median Tmax, range over part A and part B, 160 and 480 mg, postdose): 1.5 to 2.8 h | Predicted (90% CI) ΔΔQTcF at geometric mean peak concentration ([3]; 160 mg, n = 27): −3.16 (−4.51 to −1.81) msec | Predicted (90% CI) ΔΔQTcF at geometric mean peak concentration ([3]; 480 mg, n = 28): −3.38 (−4.86 to −1.89) msec

CC#CC(=O)N1CCC[C@H]1c1nc(-c2ccc(C(=O)Nc3ccccn3)cc2)c2c(N)nccn12 [acalabrutinib]
effect on QTc interval [7]: not to prolong the QTc interval
